Test results: PubChem BioAssay (NCI)
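Step 1: Grow cells in 96-well plates. Step 2: Expose to compound for 48 hours at 5 concentrations. Step 3: Interpolate endpoints linearly; if unreached, use highest concentration. GI50 = concentration required for 50% inhibition of growth. Definition used: TGI = concentration required for complete inhibition of growth.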

Experiments:
Assay in all cases: DTP human tumour cell line panel, 48 h
SK-OV-3 ovarian = tested on: SK-OV-3 ovarian
ACHN renal = tested on: ACHN renal
SF-295 CNS = tested on: SF-295 CNS
MDA-MB-231 breast = tested on: MDA-MB-231 breast
NCI-H460 lung = tested on: NCI-H460 lung
SK-MEL-2 melanoma = tested on: SK-MEL-2 melanoma
NCI/ADR-RES ovarian = tested on: NCI/ADR-RES ovarian
NCI-H522 lung = tested on: NCI-H522 lung
OVCAR-8 ovarian = tested on: OVCAR-8 ovarian
UACC-62 melanoma = tested on: UACC-62 melanoma
UO-31 renal = tested on: UO-31 renal
MDA-MB-435 = tested on: MDA-MB-435
MOLT-4 leukemia = tested on: MOLT-4 leukemia
LOX IMVI melanoma = tested on: LOX IMVI melanoma
SF-539 CNS = tested on: SF-539 CNS
HCC-2998 colon = tested on: HCC-2998 colon
OVCAR-3 ovarian = tested on: OVCAR-3 ovarian
OVCAR-5 ovarian = tested on: OVCAR-5 ovarian
COLO 205 colon = tested on: COLO 205 colon
CAKI-1 renal = tested on: CAKI-1 renal
SW-620 colon = tested on: SW-620 colon
SNB-19 CNS = tested on: SNB-19 CNS
MALME-3M melanoma = tested on: MALME-3M melanoma
HL-60(TB) leukemia = tested on: HL-60(TB) leukemia
OVCAR-4 ovarian = tested on: OVCAR-4 ovarian
SNB-75 CNS = tested on: SNB-75 CNS
HOP-92 NSCLC = tested on: HOP-92 NSCLC
NCI-H226 lung = tested on: NCI-H226 lung
DU-145 prostate = tested on: DU-145 prostate
IGROV1 ovarian = tested on: IGROV1 ovarian
BT-549 breast = tested on: BT-549 breast
A498 renal = tested on: A498 renal
SK-MEL-5 melanoma = tested on: SK-MEL-5 melanoma
MDA-MB-468 breast = tested on: MDA-MB-468 breast
EKVX NSCLC = tested on: EKVX NSCLC
T-47D breast = tested on: T-47D breast
HT29 colon = tested on: HT29 colon
SF-268 CNS = tested on: SF-268 CNS
SK-MEL-28 melanoma = tested on: SK-MEL-28 melanoma
HOP-62 NSCLC = tested on: HOP-62 NSCLC
NCI-H23 lung = tested on: NCI-H23 lung
TK-10 renal = tested on: TK-10 renal
HCT-15 colon = tested on: HCT-15 colon
HS 578T breast = tested on: HS 578T breast
PC-3 prostate = tested on: PC-3 prostate
U251 CNS = tested on: U251 CNS
786-0 renal = tested on: 786-0 renal
UACC-257 melanoma = tested on: UACC-257 melanoma
MCF7 breast = tested on: MCF7 breast
KM12 colon = tested on: KM12 colon
SN12C renal = tested on: SN12C renal
RXF 393 renal = tested on: RXF 393 renal
K-562 leukemia = tested on: K-562 leukemia
A549 NSCLC = tested on: A549 NSCLC

COc1ccc(C(=O)/C=C/c2ccc(Cl)c(C(F)(F)F)c2)cc1S(N)(=O)=O
GI50 (SK-OV-3 ovarian): 7.9 µM | TGI (SK-OV-3 ovarian): 23.8 µM | GI50 (ACHN renal): 1.47 µM | TGI (ACHN renal): 2.84 µM | GI50 (SF-295 CNS): 1.64 µM | TGI (SF-295 CNS): 3.32 µM | GI50 (MDA-MB-231 breast): 1.69 µM | TGI (MDA-MB-231 breast): 3.37 µM | GI50 (NCI-H460 lung): 2.4 µM | TGI (NCI-H460 lung): 6.62 µM | GI50 (SK-MEL-2 melanoma): 6.78 µM | TGI (SK-MEL-2 melanoma): 20.4 µM | GI50 (NCI/ADR-RES ovarian): 1.05 µM | TGI (NCI/ADR-RES ovarian): 3.33 µM | GI50 (NCI-H522 lung): 1.54 µM | TGI (NCI-H522 lung): 3.15 µM | GI50 (OVCAR-8 ovarian): 1.74 µM | TGI (OVCAR-8 ovarian): 4.51 µM | GI50 (UACC-62 melanoma): 1.52 µM | TGI (UACC-62 melanoma): 3.41 µM | GI50 (UO-31 renal): 1.4 µM | TGI (UO-31 renal): 2.74 µM | GI50 (MDA-MB-435): 1.75 µM | TGI (MDA-MB-435): 4.28 µM | GI50 (MOLT-4 leukemia): 2.57 µM | TGI (MOLT-4 leukemia): 8.33 µM | GI50 (LOX IMVI melanoma): 0.313 µM | TGI (LOX IMVI melanoma): 1.1 µM | GI50 (SF-539 CNS): 1.61 µM | TGI (SF-539 CNS): 3 µM | GI50 (HCC-2998 colon): 1.59 µM | TGI (HCC-2998 colon): 2.93 µM | GI50 (OVCAR-3 ovarian): 1.42 µM | TGI (OVCAR-3 ovarian): 2.87 µM | GI50 (OVCAR-5 ovarian): 3.27 µM | TGI (OVCAR-5 ovarian): 9.35 µM | GI50 (COLO 205 colon): 1.96 µM | TGI (COLO 205 colon): 4.08 µM | GI50 (CAKI-1 renal): 1.57 µM | TGI (CAKI-1 renal): 4.16 µM | GI50 (SW-620 colon): 1.23 µM | TGI (SW-620 colon): 2.69 µM | GI50 (SNB-19 CNS): 1.66 µM | TGI (SNB-19 CNS): 3.37 µM | GI50 (MALME-3M melanoma): 1.88 µM | TGI (MALME-3M melanoma): 4.01 µM | GI50 (HL-60(TB) leukemia): 1.72 µM | TGI (HL-60(TB) leukemia): 5.49 µM | GI50 (OVCAR-4 ovarian): 2.8 µM | TGI (OVCAR-4 ovarian): 12.5 µM | GI50 (SNB-75 CNS): 1.62 µM | TGI (SNB-75 CNS): 9.69 µM | GI50 (HOP-92 NSCLC): 2.01 µM | TGI (HOP-92 NSCLC): 5.81 µM | GI50 (NCI-H226 lung): 2.22 µM | TGI (NCI-H226 lung): 5.6 µM | GI50 (DU-145 prostate): 4.99 µM | TGI (DU-145 prostate): 17 µM | GI50 (IGROV1 ovarian): 1.87 µM | TGI (IGROV1 ovarian): 4.01 µM | GI50 (BT-549 breast): 1.71 µM | TGI (BT-549 breast): 3.18 µM | GI50 (A498 renal): 12.9 µM | TGI (A498 renal): 25.6 µM | GI50 (SK-MEL-5 melanoma): 3.63 µM | TGI (SK-MEL-5 melanoma): 13.3 µM | GI50 (MDA-MB-468 breast): 1.34 µM | TGI (MDA-MB-468 breast): 2.69 µM | GI50 (EKVX NSCLC): 2.15 µM | TGI (EKVX NSCLC): 5.75 µM | GI50 (T-47D breast): 2.37 µM | TGI (T-47D breast): 9.36 µM | GI50 (HT29 colon): 1.52 µM | TGI (HT29 colon): 3.06 µM | GI50 (SF-268 CNS): 10 µM | TGI (SF-268 CNS): 32.1 µM | GI50 (SK-MEL-28 melanoma): 1.74 µM | TGI (SK-MEL-28 melanoma): 3.19 µM | GI50 (HOP-62 NSCLC): 1.93 µM | TGI (HOP-62 NSCLC): 4.13 µM | GI50 (NCI-H23 lung): 1.62 µM | TGI (NCI-H23 lung): 3.04 µM | GI50 (TK-10 renal): 2.59 µM | TGI (TK-10 renal): 7.23 µM | GI50 (HCT-15 colon): 0.893 µM | TGI (HCT-15 colon): 2.34 µM | GI50 (HS 578T breast): 6.57 µM | TGI (HS 578T breast): 38.8 µM | GI50 (PC-3 prostate): 1.75 µM | TGI (PC-3 prostate): 4.52 µM | GI50 (U251 CNS): 1.42 µM | TGI (U251 CNS): 3.08 µM | GI50 (786-0 renal): 0.419 µM | TGI (786-0 renal): 1.8 µM | GI50 (UACC-257 melanoma): 2.1 µM | TGI (UACC-257 melanoma): 6.2 µM | GI50 (MCF7 breast): 0.333 µM | TGI (MCF7 breast): 1.39 µM | GI50 (KM12 colon): 1.76 µM | TGI (KM12 colon): 5.65 µM | GI50 (SN12C renal): 1.45 µM | TGI (SN12C renal): 2.94 µM | GI50 (RXF 393 renal): 1.64 µM | TGI (RXF 393 renal): 3.1 µM | GI50 (K-562 leukemia): 1.08 µM | TGI (K-562 leukemia): > 100 µM | GI50 (A549 NSCLC): 2.34 µM | TGI (A549 NSCLC): 10.3 µM
